Patent publication US20240353410A1, “FRET ENZYMATIC SUBSTRATE AND USES THEREOF IN LIVER CANCER” (URTESTE S.A., priority 2021, published 2024)
Values joined by “and” are separate entries in the source; they are usually repeats but may differ in a detail not shown here. Equal entries are not always repeated. *1 amine or outer side, *2 acyl side, *3 side chain or, on linkers, in order; H or OH if unused. Where no end group is shown, it is not given here. [ ]: non-standard residue; d: D form. Benzoyl(5-NH,2-NO2) = O=C(c1cc(N[*:1])ccc1[N+](=O)[O-])[*:2]; 2Abz = Nc1ccccc1C(=O)O

Legend:
Assay type in all cases: biochemical, human
[1] = tested on: urine samples from patients with another neoplastic disease; assay: Cleavage selectivity: substrate incubated with urine from patients with other cancers; conditions: for Measurement 1-3 (increase in absorbance): urine, triplicate
Experimental: (§1) The activity of the novel compounds according to the invention was studied in a group of 20 subjects diagnosed with liver cancer using the representative compound according to the invention. […] The remaining compounds according to the invention are characterized by the analogous mechanism of action. For this purpose, the representative compound according to the invention, ABZ^1-Lys^2-Ser^3-Ser^4-Asp^5-ANB^6-NH2, was dissolved in dimethyl sulfoxide (at a concentration of 0.5 mg/mL) and then 50 μL of the solution was mixed with 120 μL of a buffer (200 mM Tris-HCl, pH 8.0) and 80 μL of urine from a subject suffering from liver cancer. The measurement was performed on a 96-well plate designed for measuring absorbance and each sample was analysed in triplicate at the temperature of 37° C. The duration of the measurement was 60 minutes. During the measurement, the wavelength characteristic for the chromophore (ANB-NH2) being released was monitored at the wavelength 405 nm (range 380-430 nm).
Furthermore, the dependence of the cleavage selectivity of the substrate, i.e. the compound according to the invention, on the cancer being examined, was studied. […] This indicates cleavage selectivity of the compounds according to the invention, which makes them suitable for the specific detection of enzymatic activity specific to liver cancer and specific diagnosis of liver cancer.

[2] = tested on: urine samples taken from healthy persons; assay: Hydrolysis of the chromogenic substrate in urine from healthy subjects (absorbance at 405 nm); conditions: for Results of absorbance analysis (increase in absorbance, 405 nm): triplicate
[3] = tested on: proteolytic enzymes in urine from a subject suffering from liver cancer; assay: Hydrolysis of the chromogenic substrate in urine from subjects with liver cancer (absorbance at 405 nm); conditions: for Results of absorbance analysis (increase in absorbance, 405 nm): 37° C., 60 minutes, pH 8.0
Experimental: as §1
The observed magnitude of increase in absorbance in time is different for each of the examined samples.
Such a result may be due to the difference in the activity as well as the amount of enzymes responsible for the enzymatic cleavage (proteolysis). […] The result indicates the […] of proteolytic enzymes characteristic of liver cancer.

[4] = tested on: enzyme in the studied material (urine); assay: Dependence of substrate hydrolysis on reaction pH; conditions: FIG. 4
Experimental: Furthermore, measurements concerning the dependence of the proteolytic activity of the representative compound according to the invention on the reaction pH were performed.

[5] = tested on: urine taken from a person diagnosed with liver cancer; assay: RP HPLC analysis of substrate cleavage in urine with liver cancer; conditions: randomly selected urine from a person diagnosed with liver cancer

Cleavage of the substrate in urine ([3]; all samples 1-20 from persons suffering from liver cancer): underwent cleavage
Results of absorbance analysis (increase in absorbance, 405 nm) ([3]; urine sample W1, liver cancer, triplicate): 0.03221 and 0.03351 and 0.02109
Results of absorbance analysis (increase in absorbance, 405 nm) ([3]; urine sample W2, liver cancer, triplicate): 0.02276 and 0.02037 and 0.02884
Results of absorbance analysis (increase in absorbance, 405 nm) ([3]; urine sample W4, liver cancer, triplicate): 0.02897 and 0.02718 and 0.02812
Results of absorbance analysis (increase in absorbance, 405 nm) ([3]; urine sample W5, liver cancer, triplicate): 0.171 and 0.1445 and 0.1684
Results of absorbance analysis (increase in absorbance, 405 nm) ([3]; urine sample W6, liver cancer, triplicate): 0.02035 and 0.01966 and 0.02513
Results of absorbance analysis (increase in absorbance, 405 nm) ([3]; urine sample W8, liver cancer, triplicate): 0.0186 and 0.0199 and 0.01818
Results of absorbance analysis (increase in absorbance, 405 nm) ([3]; urine sample W9, liver cancer, triplicate): 0.0313 and 0.02635 and 0.0275
Results of absorbance analysis (increase in absorbance, 405 nm) ([3]; urine sample W10, liver cancer, triplicate): 0.04583 and 0.03322 and 0.03755
Results of absorbance analysis (increase in absorbance, 405 nm) ([3]; urine sample W11, liver cancer, triplicate): 0.02091 and 0.01156 and 0.01536
Results of absorbance analysis (increase in absorbance, 405 nm) ([3]; urine sample W12, liver cancer, triplicate): 0.03055 and 0.02126 and 0.0183
Results of absorbance analysis (increase in absorbance, 405 nm) ([3]; urine sample W13, liver cancer, triplicate): 0.01583 and 0.01383 and 0.01431
Results of absorbance analysis (increase in absorbance, 405 nm) ([3]; urine sample W14, liver cancer, triplicate): 0.00394 and 0.00525 and 0.00441
Results of absorbance analysis (increase in absorbance, 405 nm) ([3]; urine sample W15, liver cancer, triplicate): 0.01622 and 0.01718 and 0.01233
Results of absorbance analysis (increase in absorbance, 405 nm) ([3]; urine sample W16, liver cancer, triplicate): 0.01265 and 0.01251 and 0.00722
Results of absorbance analysis (increase in absorbance, 405 nm) ([3]; urine sample W17, liver cancer, triplicate): 0.0012 and 0.0018 and 0.0015
Results of absorbance analysis (increase in absorbance, 405 nm) ([3]; urine sample W18, liver cancer, triplicate): 0.01937 and 0.01539 and 0.01955
Results of absorbance analysis (increase in absorbance, 405 nm) ([3]; urine sample W19, liver cancer, triplicate): 0.0091 and 0.0093 and 0.0089
Results of absorbance analysis (increase in absorbance, 405 nm) ([3]; urine sample W20, liver cancer, triplicate): 0.1528 and 0.1867 and 0.1909
Measurement 1-3 (increase in absorbance) ([3]; urine, cancer location Liver, selectivity test of Table 2, triplicate): 0.0067 and 0.0072 and 0.0056
Dependence of hydrolysis level on pH [4]: maximum activity at alkaline pH
Substance: ABZ-Lys-Ser-Ser-Asp-ANB-NH2 ([2Abz]KSSD-{Benzoyl(5-NH,2-NO2)-NH2}) [chromogenic/FRET peptide substrate; ABZ is 2-aminobenzoic acid, ANB-NH2 is amide of 5-amino-2-nitrobenzoic acid]
Cleavage / increase in absorbance in urine of other cancers ([1]; testicular, intestine, kidney, prostate, pancreatic, bile duct, lung, ovarian and rectum cancer): is not subject to cleavage
Measurement 1-3 (increase in absorbance) ([1]; cancer location Intestine): 0
Measurement 1-3 (increase in absorbance) ([1]; cancer location Kidney): 0
Measurement 1-3 (increase in absorbance) ([1]; cancer location Lung): 0
Measurement 1-3 (increase in absorbance) ([1]; cancer location Ovary): 0
Measurement 1-3 (increase in absorbance) ([1]; cancer location Pancreas): 0
Measurement 1-3 (increase in absorbance) ([1]; cancer location Prostate): 0
Measurement 1-3 (increase in absorbance) ([1]; cancer location Rectum): 0
Measurement 1-3 (increase in absorbance) ([1]; cancer location Testicle): 0
Measurement 1-3 (increase in absorbance) ([1]; cancer location bile ducts): 0
Results of absorbance analysis (increase in absorbance, 405 nm) ([2]; urine sample 21, healthy person): 0.000000
Results of absorbance analysis (increase in absorbance, 405 nm) ([2]; urine sample 22, healthy person): 0.000000
Results of absorbance analysis (increase in absorbance, 405 nm) ([2]; urine sample 23, healthy person): 0.000000
Results of absorbance analysis (increase in absorbance, 405 nm) ([2]; urine sample 24, healthy person): 0.000000
Results of absorbance analysis (increase in absorbance, 405 nm) ([2]; urine sample 25, healthy person): 0.000000
Results of absorbance analysis (increase in absorbance, 405 nm) ([2]; urine sample 26, healthy person): 0.000000
Results of absorbance analysis (increase in absorbance, 405 nm) ([2]; urine sample 27, healthy person): 0.000000
Results of absorbance analysis (increase in absorbance, 405 nm) ([2]; urine sample 28, healthy person): 0.000000
Results of absorbance analysis (increase in absorbance, 405 nm) ([2]; urine sample 29, healthy person): 0.000000
Results of absorbance analysis (increase in absorbance, 405 nm) ([2]; urine sample 30, healthy person): 0.000000
Results of absorbance analysis (increase in absorbance, 405 nm) ([2]; urine sample 31, healthy person): 0.000000
Results of absorbance analysis (increase in absorbance, 405 nm) ([2]; urine sample 32, healthy person): 0.000000
Results of absorbance analysis (increase in absorbance, 405 nm) ([2]; urine sample 33, healthy person): 0.000000
Results of absorbance analysis (increase in absorbance, 405 nm) ([2]; urine sample 34, healthy person): 0.000000
Results of absorbance analysis (increase in absorbance, 405 nm) ([2]; urine sample 35, healthy person): 0.000000
Results of absorbance analysis (increase in absorbance, 405 nm) ([2]; urine sample 36, healthy person): 0.000000
Results of absorbance analysis (increase in absorbance, 405 nm) ([2]; urine sample 37, healthy person): 0.000000
Results of absorbance analysis (increase in absorbance, 405 nm) ([2]; urine sample 38, healthy person): 0.000000
Results of absorbance analysis (increase in absorbance, 405 nm) ([2]; urine sample 39, healthy person): 0.000000
Results of absorbance analysis (increase in absorbance, 405 nm) ([2]; urine sample 40, healthy person): 0.000000
Increase in absorbance / hydrolysis in urine ([2]; urine samples 21 to 40 from healthy persons): does not lead to an increase in absorbance
Cleavage products of the substrate (RP HPLC) [5]: cleaves into the peptide fragment ABZ-Lys-Ser-Ser-Asp-OH and the chromophore group of the compound (ANB-NH2)
